{
  "source": "paper PMC11671585",
  "about": "“Deciphering the molecular basis of lipoprotein recognition and transport by LolCDE” (Signal Transduction and Targeted Therapy, 2024)",
  "biological_target": "T1, LolCDE (LolCD^E171QE) (Escherichia coli, UniProt P75957, E171Q)",
  "T1 construct": "gene lolD; full complex LolC, LolD dimer, LolE; 8xHis tag at C terminus of LolD; expressed in E. coli C43 (DE3); reconstituted in MSP1D1 nanodiscs with E. coli polar lipids; with Lipoprotein-releasing system transmembrane protein LolC; Lipoprotein-releasing system transmembrane protein LolE",
  "T1 sequence (P75957 whole entry E171Q)": "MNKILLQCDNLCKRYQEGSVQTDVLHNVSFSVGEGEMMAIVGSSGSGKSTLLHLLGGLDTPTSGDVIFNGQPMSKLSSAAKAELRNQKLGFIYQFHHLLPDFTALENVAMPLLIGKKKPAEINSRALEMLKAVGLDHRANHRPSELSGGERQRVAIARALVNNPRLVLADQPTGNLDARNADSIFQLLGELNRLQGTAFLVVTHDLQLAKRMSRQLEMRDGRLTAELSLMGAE",
  "T1 sequence (P75958 2-414, further chain)": "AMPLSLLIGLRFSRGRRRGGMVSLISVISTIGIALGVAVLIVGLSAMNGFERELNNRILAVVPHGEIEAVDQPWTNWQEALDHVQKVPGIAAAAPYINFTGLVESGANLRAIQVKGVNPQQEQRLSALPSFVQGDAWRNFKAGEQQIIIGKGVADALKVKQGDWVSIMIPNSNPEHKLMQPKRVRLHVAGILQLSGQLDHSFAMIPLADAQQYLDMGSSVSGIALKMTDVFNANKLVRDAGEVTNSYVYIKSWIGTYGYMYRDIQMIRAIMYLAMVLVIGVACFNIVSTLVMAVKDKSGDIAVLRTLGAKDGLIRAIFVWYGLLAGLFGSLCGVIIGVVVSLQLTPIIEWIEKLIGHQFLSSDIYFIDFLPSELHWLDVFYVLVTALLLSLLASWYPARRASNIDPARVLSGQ",
  "T1 sequence (P0ADC3 whole entry, further chain)": "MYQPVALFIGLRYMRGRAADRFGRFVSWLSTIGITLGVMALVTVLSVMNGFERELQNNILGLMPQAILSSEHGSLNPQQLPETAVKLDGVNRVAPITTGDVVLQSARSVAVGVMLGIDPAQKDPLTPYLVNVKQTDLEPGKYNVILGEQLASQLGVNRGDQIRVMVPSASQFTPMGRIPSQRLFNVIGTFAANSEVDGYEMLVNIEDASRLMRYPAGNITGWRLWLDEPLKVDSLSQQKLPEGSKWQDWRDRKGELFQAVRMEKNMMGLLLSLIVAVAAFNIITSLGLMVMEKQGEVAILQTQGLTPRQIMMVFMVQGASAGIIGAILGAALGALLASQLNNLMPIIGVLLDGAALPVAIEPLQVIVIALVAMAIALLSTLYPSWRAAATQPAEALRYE",
  "assay": "cryo-EM structure, […] Å, nanodiscs",
  "format": "binding",
  "details": "endogenous ATP with Mg2+, no nucleotide added; both catalytic sites of the LolD dimer; catalytically inactive mutant; pH 7.8",
  "data": [
    {"smiles": "Nc1ncnc2c1ncn2[C@@H]1O[C@H](COP(=O)(O)OP(=O)(O)OP(=O)(O)O)[C@@H](O)[C@H]1O", "note": "[ATP]", "values": [
      {"measurement": "cryo-EM structure, 3.2 Å, nanodiscs", "value": "additional cryo-EM densities were observed in the catalytic pockets of LolD, which were identified as ATP"}
    ]}
  ]
}
